The results in this text go back to US20220168322A1, “NOVEL STAT3 INHIBITORS IDENTIFIED BY STRUCTURE-BASED VIRTUAL SCREENING INCORPORATING SH2 DOMAIN FLEXIBILITY” (Board of Regents, The University of Texas System, priority 2018, published 2022).

Read-outs that look alike come from different tables or passages of the source.

One assay has as its system G-CSF-stimulated pSTAT3. Kind of assay: Inhibition of G-CSF-stimulated pSTAT3 in Kasumi-1 cells (Luminex, pSTAT3/GAPDH). It counts as cell-based. Conditions: for activity at 10 µM: Kasumi 1, single concentration of 10 μM, G-CSF 100 ng/ml, pSTAT3/GAPDH relative to DMSO treated cells, read-out: % of Control Stimulated pSTAT3; for inhibition at 10 µM: Kasumi-1 cells, read-out: inhibition of G-CSF-induced pY-STAT3. As for the experimental part: […] Total protein was assayed for pSTAT3 and GAPDH levels by Luminex. GAPDH-normalized pSTAT3 values were divided by the same for untreated cells and expressed as percentage. These values were plotted as a function of Log [M] compound, and IC50 calculated using GraphPad. Data from representative experiments from at least two repeats is shown.
Luminex bead-based assay. Luminex bead-based assays were used to determine levels of pSTAT3, pSTAT1, pSTAT5, and GAPDH, as described (Bharadwaj et al., 2015). […]

A further assay addresses T1, STAT3 (aa 127-722) (Homo sapiens, UniProt P40763).
T1 construct: STAT3 (aa 127-722) at a concentration of 200 nM
As to the kind of experiment: SPR assay of STAT3 binding to immobilized EGFR pY1068 phosphododecapeptide. The conditions noted are these: for inhibition at 10 µM / inhibition at 100 µM / inhibition of STAT3 binding to EGFR pY-peptide: SPR; for inhibition at 10 µM / inhibition at 100 µM: read-out: inhibition of STAT3 binding to EGFR pY-peptide; for % of max binding at 10 μm: pEGFRp-STAT3 binding (SPR) at pH 8, compound 10 μm; for % of max binding at 100 μm: pEGFRp-STAT3 binding (SPR) at pH 8, compound 100 μm; for inhibition at 100 µM / inhibition of STAT3 binding to EGFR pY-peptide: 100 μM. As for the experimental part:
Surface plasmon resonance (SPR) assay of STAT3 binding pY-peptide. STAT3 (aa 127-722) at a concentration of 200 nM in 20 mM Tris buffer (pH 8) was pre-incubated without or with compounds prior to injection onto an SA chip immobilized with phosphorylated and control non-phosphorylated biotinylated EGFR derived dodecapeptides based on sequence surrounding Y1068 (Shao et al., 2004), on a Biacore 3000 biosensor (Biacore inc., Piscataway N.J.) and analyzed as described (Bharadwaj et al., 2016).
Surface Plasmon Resonance (SPR) was performed on the 24 compounds to determine their ability to block binding of purified STAT3 to an immobilized phosphododecapeptide based on EGFR Y1068 (EGFR pY-peptide), as described (Xu et al., 2009).

For a further assay, the system named is MDA-MB-231 cells. As to the kind of experiment: Anchorage-independent and dependent cell growth (MTT), MDA-MB-231. In kind it is cell-based. The conditions noted are these: NA = No Activity. Here is the method: MDA-MB-231 cells were cultured for 48 hrs in complete DMEM with 10% FBS±compound (0/0.1/0.3/1/3/10/100 μM) in cell-culture-treated plates and viable cells quantitated using MTT. Relative % viability (viability after any treatment÷viability of untreated cells×100) was plotted as a function of Log [M] compound, and IC50 values calculated using GraphPad.
MDA-MB-231 cells were cultured for 72 hrs in complete DMEM with 10% FBS±compound (0/0.1/0.3/1/3/10/100 μM) in cell-culture-treated ultra-low attachment 96-well plates and viable cells quantitated using MTT. Relative % viability (viability after any treatment÷viability of untreated cells×100) was plotted as a function of Log [M] compound, and IC50 values calculated using GraphPad.
(§1) Anchorage-independent and dependent cell growth. Cells were cultured in triplicates in complete DMEM±drug, in ultra-low attachment 96 well plates for 72 hrs or cell-culture treated plates for 48 hrs and viable cells were quantitated using MTT. Optical density (OD) was measured at 590 nm using a 96-well multi-scanner (Synergy H1 microplate reader, BioTek Inc, VT, USA). Relative % viability (viability after any treatment÷viability of untreated cells×100) was plotted along Y-axis. At least 2 replicates experiments were performed and were used for IC50 calculation using GraphPad software.

The subject of the next assay is MDA-MB-468 cells. Kind of assay: Anchorage-independent and dependent cell growth (MTT), MDA-MB-468. It counts as cell-based. Conditions: NA = No Activity. Here is the method:
MDA-MB-468 cells were cultured for 48 hrs in complete DMEM with 10% FBS±compound (0/0.1/0.3/1/3/10/100 μM) in cell-culture-treated plates and viable cells quantitated using MTT. Relative % viability (viability after any treatment÷viability of untreated cells×100) was plotted as a function of Log [M] compound, and IC50 values calculated using GraphPad.
MDA-MB-468 cells were cultured for 72 hrs in complete DMEM with 10% FBS±compound (0/0.1/0.3/1/3/10/100 μM) in cell-culture-treated ultra-low attachment 96-well plates and viable cells quantitated using MTT. Relative % viability (viability after any treatment viability of untreated cells×100) was plotted as a function of Log [M] compound, and IC50 values calculated using GraphPad.
as §1

Setting [1] is: Kasumi1 cells, G-CSF induced pSTAT3/GAPDH by Luminex.
Where [2] appears, read: Homo sapiens, MDA-MB-231, 72 h, anchorage independent, ultra-low attachment plates, 72 hrs, read-out: Growth AI IC50 231.
Where [3] appears, read: Homo sapiens, MDA-MB-231, 48 h, anchorage dependent, cell-culture treated plates, 48 hrs, read-out: Growth AD IC50 231.
The mark [4] stands for this setting: anchorage dependent, cell-culture treated plates, 48 hrs, read-out: Growth AD IC50 231.
Setting [5] is: Homo sapiens, MDA-MB-468, 48 h, anchorage dependent, cell-culture treated plates, 48 hrs, read-out: Growth AD IC50 468.
[6] abbreviates: Homo sapiens, MDA-MB-468, 72 h, anchorage independent, ultra-low attachment plates, 72 hrs, read-out: Growth AI IC50 468.
Setting [7] is: anchorage dependent, cell-culture treated plates, 48 hrs, read-out: Growth AD IC50 468.
Setting [8] is: anchorage dependent, cell-culture treated plates, 48 hrs.
Where [9] appears, read: anchorage independent, ultra-low attachment plates, 72 hrs.

T1 sequence (P40763 127-722 isoform P40763-3 limits assumed, species assumed): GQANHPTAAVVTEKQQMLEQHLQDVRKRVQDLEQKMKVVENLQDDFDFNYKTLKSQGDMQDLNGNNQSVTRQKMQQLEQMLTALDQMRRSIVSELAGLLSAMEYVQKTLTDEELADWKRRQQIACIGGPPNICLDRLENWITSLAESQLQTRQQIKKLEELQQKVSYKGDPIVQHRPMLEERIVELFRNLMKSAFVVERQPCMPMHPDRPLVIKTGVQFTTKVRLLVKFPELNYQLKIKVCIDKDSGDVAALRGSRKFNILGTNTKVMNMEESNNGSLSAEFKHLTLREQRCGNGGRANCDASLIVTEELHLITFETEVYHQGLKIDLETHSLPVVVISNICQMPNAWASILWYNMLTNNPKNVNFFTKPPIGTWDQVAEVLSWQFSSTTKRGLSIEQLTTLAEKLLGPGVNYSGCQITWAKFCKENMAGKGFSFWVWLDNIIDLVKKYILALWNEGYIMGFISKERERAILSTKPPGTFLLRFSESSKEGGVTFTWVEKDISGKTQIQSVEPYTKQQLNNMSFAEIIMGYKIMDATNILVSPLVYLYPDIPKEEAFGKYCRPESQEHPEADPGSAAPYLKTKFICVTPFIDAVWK

`COc1ccc(/C=C/C(=O)c2cc(Br)ccc(=O)c2O)cc1` [SPEC-8, 5-bromo-2-hydroxy-3-[3-(4-methoxyphenyl)acryloyl]-2,4,6-cycloheptatrien-1-one]: the activity at 10 µM in the assay on G-CSF-stimulated pSTAT3 (Homo sapiens, Kasumi1 cells) worked out at 0%. Besides, the inhibition at 10 µM in the assay on G-CSF-stimulated pSTAT3 (Homo sapiens) is 20 to 80%. This compound returned a 50% inhibitory concentration (IC50) in the assay on G-CSF-stimulated pSTAT3 (setting [1]) of 4.1 µM. Further, on STAT3 (aa 127-722), the inhibition at 10 µM lay within 29 to 71%, the inhibition at 100 µM lay within 67 to 93%, the “% of max binding at 10 μm” value amounted to 49.1% and the “% of max binding at 100 μm” value worked out at 30.3%. In addition, the half-maximal inhibitory concentration (IC50) with MDA-MB-231 cells (setting [2]) was 26.1 µM.
On to `COc1ccc(Br)cc1/C=C/C(=O)c1ccc(NC(C)=O)cc1` [SPEC-29, N-(4-[(E)-3-(5-bromo-2-methoxyphenyl)prop-2-enoyl)phenyl]acetamide], for which the activity at 10 µM in the assay with G-CSF-stimulated pSTAT3 (Homo sapiens, Kasumi1 cells) was 0%. Besides, the inhibition at 10 µM in the assay on G-CSF-stimulated pSTAT3 (Homo sapiens) was 20 to 80%; on STAT3 (aa 127-722) it was 29 to 71%. In addition, the IC50 with G-CSF-stimulated pSTAT3 (setting [1]) was 2.7 µM; in the assay with MDA-MB-231 cells (setting [3]) it was 3 to 12.2 µM; in the assay with MDA-MB-231 cells (setting [2]), 9.5 ± 4.1 µM; with MDA-MB-231 cells (setting [4]), 3 ± 2.2 µM; in the assay on MDA-MB-468 cells (setting [5]), 2.4 to 12.1 µM; with MDA-MB-468 cells (setting [6]) it was 1.8 to 11.1 µM. The IC50 with MDA-MB-468 cells (setting [7]) was 2.4 ± 2.5 µM; with MDA-MB-468 cells (anchorage independent, ultra-low attachment plates, 72 hrs, read-out: Growth AI IC50 468) it was 1.8 ± 1.6 µM. The “inhibition of STAT3 binding to EGFR pY-peptide” value at STAT3 (aa 127-722) stood at 78%. The inhibition at 100 µM at STAT3 (aa 127-722) was 67 to 93%. The “% of max binding at 10 μm” value on STAT3 (aa 127-722) stood at 69.6%. The “% of max binding at 100 μm” value at STAT3 (aa 127-722) came out at 22.1%.
In the assay with G-CSF-stimulated pSTAT3 (Homo sapiens, Kasumi 1, Kasumi1 cells, G-CSF induced pSTAT3/GAPDH by Luminex), `O=C(O)COc1c(Br)cc(/C=C2\SC(=O)N(CC(=O)N3CCN(c4ccccc4)CC3)C2=O)cc1Br` [SPEC-85, [2,6-dibromo-4-({2,4-dioxo-3-[2-oxo-2-(4-phenyl-1-piperazinyl)ethyl]-1,3-thiazolidin-5-ylidene}methyl)phenoxy]acetic acid] came in with an IC50 of more than 100 µM. Besides, in the assay on G-CSF-stimulated pSTAT3 (Homo sapiens, Kasumi1 cells), the activity at 10 µM worked out at 2%. In addition, the inhibition at 10 µM in the assay on G-CSF-stimulated pSTAT3 (Homo sapiens) was in the range of 20 to 80%. In addition, the “G-CSF pSTAT3 IC50” value in the assay with G-CSF-stimulated pSTAT3 (setting [1]) was “almost no activity”. Moreover, on STAT3 (aa 127-722), the inhibition at 10 µM is 29 to 71%, the “inhibition of STAT3 binding to EGFR pY-peptide” value is on record as 95%, the “% of max binding at 10 μm” value came to 67.3% and the “% of max binding at 100 μm” value is given as 9.5%. In the assay on MDA-MB-231 cells (setting [8]), the “Growth AD IC50 231” value is on record as “no activity”. In the assay on MDA-MB-231 cells (setting [9]), the “Growth AI IC50 231” value is given as “no activity”. In the assay on MDA-MB-468 cells (setting [8]), the “Growth AD IC50 468” value is listed as “no activity”. In addition, the “Growth AI IC50 468” value with MDA-MB-468 cells (setting [9]) is “no activity”.
For `CC(=O)Nc1nc(C)c(-c2csc(Nc3ccccc3)n2)s1` [SPEC-93, N-(2-aniline-4′-methyl-4,5′-bi-1,3-thiazol-2′-yl)acetamide], the activity at 10 µM in the assay on G-CSF-stimulated pSTAT3 (Homo sapiens, Kasumi1 cells) was 0%. For the same compound, the inhibition at 10 µM in the assay on G-CSF-stimulated pSTAT3 (Homo sapiens) was 20 to 80%. For the same compound, at STAT3 (aa 127-722), the inhibition at 10 µM fell in the range of 29 to 71%, the inhibition at 100 µM lay in the range of 67 to 93%, the “% of max binding at 10 μm” value is 116.8% and the “% of max binding at 100 μm” value came to 28.3%. Also, the 50% inhibitory concentration (IC50) in the assay with MDA-MB-231 cells (setting [2]) amounted to 15.7 ± 1.3 µM.
On to `COc1cc(/C=C2/SC(=O)NC2=O)ccc1OCc1ccc(Cl)cc1Cl` [SPEC-98], for which the activity at 10 µM in the assay with G-CSF-stimulated pSTAT3 (Homo sapiens, Kasumi1 cells) stood at 20%. Also, the inhibition at 10 µM in the assay on G-CSF-stimulated pSTAT3 (Homo sapiens) lay in the range of 20 to 80%; at STAT3 (aa 127-722) it was 29 to 71%. In addition, at STAT3 (aa 127-722), the inhibition at 100 µM lay in the range of 67 to 93%. Further, the “% of max binding at 10 μm” value on STAT3 (aa 127-722) was 70.4%. Besides, the “% of max binding at 100 μm” value on STAT3 (aa 127-722) was found to be 7.8%. For the same compound, the half-maximal inhibitory concentration (IC50) in the assay with MDA-MB-231 cells (setting [3]) was 25.6 to 65.2 µM; in the assay with MDA-MB-231 cells (setting [4]), 25.6 ± 3.9 µM; in the assay on MDA-MB-468 cells (setting [5]), 25.6 to 65.2 µM; in the assay on MDA-MB-468 cells (setting [6]) it was 64.1 ± 3.1 µM; in the assay with MDA-MB-468 cells (setting [7]), 32.5 ± 3.7 µM.
For the compound `Cc1cc(NS(=O)(=O)c2ccc(NC(=O)COc3ccc(C(C)(C)c4ccccc4)cc3)cc2)nc(C)n1` [SPEC-106, N-(4-{[(2,6-dimethyl-4-pyrimidinyl)amino]sulfonyl}phenyl)-2-[4-(1-methyl-1-phenylethyl)phenoxy]acetamide], the activity at 10 µM in the assay with G-CSF-stimulated pSTAT3 (Homo sapiens, Kasumi1 cells) came out at 1%. Also, the values for the inhibition at 10 µM with G-CSF-stimulated pSTAT3 (Homo sapiens) and at STAT3 (aa 127-722) were 20 to 80% and 29 to 71%, respectively. Besides, the inhibition at 100 µM at STAT3 (aa 127-722) was in the range of 67 to 93%. Besides, the “% of max binding at 10 μm” value at STAT3 (aa 127-722) worked out at 68.9%. In addition, at STAT3 (aa 127-722), the “% of max binding at 100 μm” value amounted to 20.4%. Moreover, the IC50 in the assay with MDA-MB-231 cells (setting [3]) was 25.6 to 65.2 µM; in the assay on MDA-MB-231 cells (setting [2]), 38.9 µM; in the assay on MDA-MB-231 cells (setting [4]), 39 µM; in the assay with MDA-MB-468 cells (setting [5]) it was 25.6 to 65.2 µM; in the assay with MDA-MB-468 cells (setting [6]), 34.9 ± 1.3 µM; in the assay on MDA-MB-468 cells (setting [7]), 44.7 µM.
